From patent US20080125435A1, “1-(Het)aryl-3-[hetaryl-piperidin-4-yl]-thioureas as modulators of the EP2 receptor” (priority 2006, published 2008)

What was measured:
[1] = target: T1, EP2 subtype of the human PGE2 receptor (Homo sapiens, UniProt P43116); assay: cAMP antagonism test (test for antagonism in the presence of PGE2); assay type: cell-based; settings: in presence of agonist PGE2
T1 construct: host or cells: cells in a cell culture plate
Text: (§1) The binding of PGE2 to the EP2 subtype of the human PGE2 receptor induces the activation of membrane adenylate cyclases and leads to the formation of cAMP. In the presence of the phosphodiesterase inhibitor IBMX, the cAMP accumulated through this stimulation and released by cell lysis is used in a competitive detection process. In this test, the cAMP in the lysate competes with cAMP-XL665 for the binding of an Eu cryptate-labeled anti-cAMP antibody. Here in the absence of cellular cAMP a maximal signal is produced, which is due to the coupling of this antibody to the cAMP-XL665 molecule. As a result, after excitation at 337 nm, a long-lasting emission signal at 665 nm (and at 620 nm) based on FRET (fluorescence resonance energy transfer) is produced. Both signals are measured in a suitable measuring instrument with time delay, i.e. after the background fluorescence has died away.
(§2) The substance solutions (0.75 μl) which contain 30% DMSO are placed in a test plate and are dissolved in 16 μl of a KRSB+IBMX stimulation solution (1× cancer Ringer bicarbonate buffer; Sigma-Aldrich # K-4002; including 750 μM 3-isobutyl-1-methylxanthine Sigma-Aldrich # 1-7018), then 15 μl of this are transferred into a media-free cell culture plate which has been washed with KRSB shortly beforehand.
After a 30-minute preincubation at room temperature (RT), 5 μl of a 4×PGE2 solution (11 nM) are added and incubated in the presence of the agonist for a further 60 mins at RT (volume: ˜20 μl), before the reaction is then stopped by addition of 5 μl of lysis buffer and the mixture is incubated for a further 20 mins at RT (volume: ˜25 μl). The cell lysate is then transferred onto an assay plate and assayed in accordance with the manufacturer's instructions (cyclic AMP kit Cisbio International # 62AMPPEC).

[2] = target: T1, EP2 subtype of the human PGE2 receptor; assay: cellular agonism test (cAMP); assay type: cell-based
Text: as §1
as §2, with “μl)” for “μl) which contain 30% DMSO are”, “and 30% DMSO” for “and”, “beforehand. […]” for “beforehand.”

[3] = system: cumulus-ovum complexes (cumulus expansion); assay: Cumulus expansion test in vitro; assay type: cell-based, mice; settings: competing with natural EP2 receptor agonist PGE2
Protocol: In immature female mice (strain: CD1 (ICR) von Charles River), folliculogenesis is induced at an age of 14-18 days by a single administration (intraperitoneal) of 10 I.U. of PMSG (Pregnant Mare Serum Gonadotropin; Sigma G-4877, Lot 68H0909). 47-50 hours after the injection, the ovaries are removed and the cumulus-ovum complexes removed. At this stage, the cumulus complex is not yet expanded.
The cumulus-ovum complexes are now incubated for 20-24 hours with prostaglandin E2 (PGE2) (1 μM), vehicle control (ethanol) or test substances. Medium: alpha-MEM medium with 0.1 mM IBMX, pyruvate (0.23 mM) glutamine (2 mM), pen/strep 100 IU/ml pen. and 100 μg/ml strep.) and HSA (8 mg/ml)). The cumulus expansion is then assessed by classification into four stages (after Vanderhyden et al. Dev Biol. 1990 August; 140(2):307-317).

T1 sequence (P43116 whole entry): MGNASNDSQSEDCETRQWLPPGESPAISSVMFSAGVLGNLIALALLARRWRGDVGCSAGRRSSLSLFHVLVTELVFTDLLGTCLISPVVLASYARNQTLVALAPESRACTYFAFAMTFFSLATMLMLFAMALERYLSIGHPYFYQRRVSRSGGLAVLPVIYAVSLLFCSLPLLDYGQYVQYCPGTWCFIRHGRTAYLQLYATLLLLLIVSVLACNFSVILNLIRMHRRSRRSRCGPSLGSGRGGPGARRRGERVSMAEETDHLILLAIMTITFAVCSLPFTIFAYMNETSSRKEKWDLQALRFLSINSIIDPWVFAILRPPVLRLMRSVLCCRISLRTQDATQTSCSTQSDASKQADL

Row | IC50 [1] | activity in the cellular agonism test [2] | Structure (SMILES) | suppression of cumulus expansion ([3]; at a 10 times lower concentration than AH 6809 (100-200 μM)) | suppression of the expansion of the cumulus ([3]; at a concentration of 100-200 μM)
1 | 2.7 µM | – | CSc1ccc(NC(=S)NC2CCN(c3ccnc4cc(Cl)ccc34)CC2)cc1 [Example 1, 1-[1-(7-chloro-quinolin-4-yl)-piperidin-4-yl]-3-(4-methylsulfanyl-phenyl)-thiourea] | – | –
2 | 3.8 µM | no inhibition | S=C(Nc1ccccc1Br)NC1CCN(c2ccnc3cc(Cl)ccc23)CC1 [Example 8, 1-(2-bromo-phenyl)-3-(1-(7-chloro-quinolin-4-yl)-piperidin-4-yl)-thiourea] | 20% | –
3 | 3.4 µM | – | CSc1ccccc1NC(=S)NC1CCN(c2ccnc3cc(Cl)ccc23)CC1 [Example 14, 1-(1-(7-chloro-quinolin-4-yl)-piperidin-4-yl)-3-(2-methylsulfanyl-phenyl)-thiourea] | – | –
4 | – | – | CC(C)Oc1ccc2c(=O)c3cc(C(=O)O)ccc3oc2c1 [AH 6809, reference compound] | – | ca. 30%
